In patent US5750538A, “Method of treating hypercholesterolemia and related disorders” (Novo Nordisk A/S, priority 1996, dated 1998):

Target: T1, squalene synthetase (Rattus norvegicus, UniProt Q02769)
T1 construct: Rat liver microsomal preparation; from tissue; host or cells: liver microsomes of male rats (100,000 x g pellet)
T1 sequence (Q02769 1-416): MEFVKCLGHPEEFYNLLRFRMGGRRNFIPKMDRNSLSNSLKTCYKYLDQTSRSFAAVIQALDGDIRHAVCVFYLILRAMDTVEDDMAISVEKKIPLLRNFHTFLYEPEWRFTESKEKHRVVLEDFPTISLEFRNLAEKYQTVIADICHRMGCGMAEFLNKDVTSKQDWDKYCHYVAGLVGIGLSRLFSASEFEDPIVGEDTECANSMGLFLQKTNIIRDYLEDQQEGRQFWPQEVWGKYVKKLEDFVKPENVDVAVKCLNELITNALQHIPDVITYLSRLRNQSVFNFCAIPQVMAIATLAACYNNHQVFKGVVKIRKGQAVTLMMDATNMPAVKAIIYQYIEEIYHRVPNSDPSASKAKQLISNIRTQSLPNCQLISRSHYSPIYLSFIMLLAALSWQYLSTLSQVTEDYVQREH
Assay: Squalene synthetase inhibition assay in vitro (rat liver microsomal preparation, 3H-FPP)
Assay type: biochemical
Settings: rat liver microsomal enzyme, 3H-FPP 10 μM final conc.; for SQUALENE SYNTHETASE INHIBITION % max: maximal inhibition; for IC50: 10 min incubation at 37° C.
Protocol: Squalene synthease inhibition assay in vitro
a) Rat liver microsomal preparation
Male rats weighing 200 to 300 g were decapitated and the liver removed and placed in 10 ml icecold 0.25M sucrose, 2 mM EDTA and 50 mM Tris, HCl buffer pH 7.4. The liver was homogenized in 3×volume buffer relative to weight using a glass teflon Potter-Elvehjem homogenizer set to 1000 rpm.
The homogenate was then centrifuged for 15 min. at 12,000×g at 4° C. The resultant supernatant was gently decanted into 10 ml ultracentrifuge vials and treated at 100,000×g for 60 min. at 4° C. The microsomal pellet was resuspended in a final volume of 1 ml icecold 0.1M phosphate buffer pH 7.4 per gram liver tissue by gentle homogenization in a glass Potter-Elvehjem at 800 rpm. Aliquots of 0.5 ml (approx. 20 mg/ml protein) was stored at -80° C. until further use in the squalene synthetase inhibition assay.
To begin the assay, 20 μl of the compound of this invention or vehicle solution is added to each 16×150 screw-cap culture tube on ice. Then 580 μl of N2 flushed assay buffer is pipetted into each tube. 100 μl of cofactor is next added to each tube, followed by 1 00 μl of a dilution of microsomal enzyme (approximately 80 μg protein). The tubes are preincubated for 10 min. at 37° C., and 200 μl of the ^3 H-FPP (200,000 dpm, 10 μM final conc.) is added to each tube at two second intervals. The tubes are then incubated for exactly 10 min., shaking at 150 oscillations per min. After the 10 min. incubation, the reaction is stopped by the addition of 1 ml of 15% KOH in ethanol, and the tubes are incubated for 30 min. in a 65° C. water bath for saponification of lipids and solubilization of proteins. The tubes are cooled on ice for five min. The samples are next extracted with 5 ml of petroleum ether by shaking for 10 min. at low speed on a metabolic shaker. Each lower aqueous layer is frozen in a dry ice/alcohol bath (2-propanol/methanol, 1:1), and each organic layer is poured into another set of 16 ×150 screw-top culture tubes containing 2 ml of deionized water. Each ether layer is washed by vortexing each tube for 5 sec. The aqueous layers are again frozen in the dry ice/alcohol bath, and the ether is poured into scintillation vials. 10 ml of AquaSol® is next added to each vial, and the vials are counted for 5 min. in a scintillation counter. Percent inhibitions are calculated from the counts obtained.

| SMILES | SQUALENE SYNTHETASE INHIBITION % max | IC50 |
| --- | --- | --- |
| CCCCCCCSc1nsnc1C1CN2CCC1CC2 (centres unmarked) | 92% | 0.89 µM |
| c1ccc(CCCSc2nsnc2C2CN3CCC2CC3)cc1 (centres unmarked) | 89% | 0.9 µM |
| c1ccc(Oc2ccc(COc3nsnc3C3CN4CCC3CC4)cc2)cc1 (centres unmarked) | 83% | 0.3 µM |
| c1ccc(-c2ccc(COc3nsnc3C3CN4CCC3CC4)cc2)cc1 (centres unmarked) | 60% | 3.9 µM |
| c1ccc(CCCSc2nsnc2[C@H]2CN3CC[C@@H]2C3)cc1 (relative stereo) | 55% | 12.4 µM |
| c1ccc(CCCSc2nsnc2[C@H]2CN3CCC[C@@H]2C3)cc1 (single isomer, unassigned) | 72% | 5.1 µM |
| c1ccc(CCCSc2nsnc2[C@@H]2CN3CCC[C@@H]2C3)cc1 (single isomer, unassigned) | 80% | 1.1 µM |
